ChEMBL document CHEMBL3046517, “Synthesis and antimicrobial study of fluoroquinolone-based 4-thiazolidinones” (2010)
In brackets after ≈: the same amount, converted by molar mass. Activity calls are given as the source filed them. No cut-off for these calls is given here.

Legend:
Type in all cases: functional
[1] = tested on: Candida albicans; experiment: Antifungal activity against Candida albicans by broth dilution method
[2] = tested on: Escherichia coli; experiment: Antibacterial activity against Escherichia coli by broth dilution method
[3] = tested on: Aspergillus clavatus; experiment: Antifungal activity against Aspergillus clavatus by broth dilution method
[4] = tested on: Staphylococcus aureus; experiment: Antibacterial activity against Staphylococcus aureus by broth dilution method
[5] = tested on: Aspergillus niger; experiment: Antifungal activity against Aspergillus niger by broth dilution method
[6] = tested on: Pseudomonas aeruginosa; experiment: Antibacterial activity against Pseudomonas aeruginosa by broth dilution method
[7] = tested on: Streptococcus pyogenes; experiment: Antibacterial activity against Streptococcus pyogenes by broth dilution method

Row | Compound | MIC [1] [µg/mL] | MIC [2] [µg/mL] | MIC [3] [µg/mL] | MIC [4] [µg/mL] | MIC [5] [µg/mL] | MIC [6] [µg/mL] | MIC [7] [µg/mL] | Activity [1] | Activity [2] | Activity [4] | Activity [6] | Activity [7]
1 | COc1ccc(N2CCN(c3cc4c(cc3F)c(=O)c(C(=O)NN3C(=O)CSC3c3ccccc3O)cn4C3CC3)CC2)cc1 (stereo not drawn) | 500 (≈ 794 µM) | 500 (≈ 794 µM) | 1000 (≈ 1590 µM) | 500 (≈ 794 µM) | 1000 (≈ 1590 µM) | 1000 (≈ 1590 µM) | 500 (≈ 794 µM) |  |  |  |  | 
2 | COC1=CC(=O)C[C@@H](C)[C@]12Oc1c(Cl)c(OC)cc(OC)c1C2=O [GRISEOFULVIN] | 500 (≈ 1420 µM) |  | 100 (≈ 283 µM) |  | 100 (≈ 283 µM) |  |  |  |  |  |  | 
3 | CC1(C)S[C@@H]2[C@H](NC(=O)[C@H](N)c3ccccc3)C(=O)N2[C@H]1C(=O)O [AMPICILLIN] |  | 100 (≈ 286 µM) |  | 250 (≈ 715 µM) |  | 100 (≈ 286 µM) | 100 (≈ 286 µM) |  |  |  |  | 
4 | COc1ccc(N2CCN(c3cc4c(cc3F)c(=O)c(C(=O)NN3C(=O)CSC3c3ccc(Cl)cc3)cn4C3CC3)CC2)cc1 (stereo not drawn) | 1000 (≈ 1540 µM) | 500 (≈ 771 µM) | > 1000 | 100 (≈ 154 µM) | 500 (≈ 771 µM) | 500 (≈ 771 µM) | 1000 (≈ 1540 µM) |  |  |  |  | 
5 | COc1ccc(/C=N\NC(=O)c2cn(C3CC3)c3cc(N4CCN(c5ccc(OC)cc5)CC4)c(F)cc3c2=O)cc1 | 500 (≈ 878 µM) | 100 (≈ 176 µM) | > 1000 | 500 (≈ 878 µM) | > 1000 | 200 (≈ 351 µM) | 100 (≈ 176 µM) |  |  |  |  | 
6 | COc1ccc(N2CCN(c3cc4c(cc3F)c(=O)c(C(=O)N/N=C\c3ccc(O)c(OC)c3)cn4C3CC3)CC2)cc1 | 1000 (≈ 1710 µM) | 150 (≈ 256 µM) | 1000 (≈ 1710 µM) | 500 (≈ 854 µM) | 1000 (≈ 1710 µM) | 200 (≈ 342 µM) | 500 (≈ 854 µM) |  |  |  |  | 
7 | O=C(N/N=C\c1ccc(O)cc1)c1cn(C2CC2)c2cc(Cl)c(F)cc2c1=O | 500 (≈ 1250 µM) | 500 (≈ 1250 µM) | 500 (≈ 1250 µM) | 500 (≈ 1250 µM) | 500 (≈ 1250 µM) | 500 (≈ 1250 µM) | 500 (≈ 1250 µM) |  |  |  |  | 
8 | COc1ccc(N2CCN(c3cc4c(cc3F)c(=O)c(C(=O)NN3C(=O)CSC3c3ccccc3[N+](=O)[O-])cn4C3CC3)CC2)cc1 (stereo not drawn) | 1000 (≈ 1520 µM) | 500 (≈ 759 µM) | 1000 (≈ 1520 µM) | 200 (≈ 304 µM) | 1000 (≈ 1520 µM) | 100 (≈ 152 µM) | 500 (≈ 759 µM) |  |  |  |  | 
9 | COc1ccc(N2CCN(c3cc4c(cc3F)c(=O)c(C(=O)N/N=C\c3ccccc3Cl)cn4C3CC3)CC2)cc1 | 500 (≈ 871 µM) | 100 (≈ 174 µM) | > 1000 | 500 (≈ 871 µM) | > 1000 | 100 (≈ 174 µM) | 100 (≈ 174 µM) |  |  |  |  | 
10 | O=C(Cl)c1cn(C2CC2)c2cc(Cl)c(F)cc2c1=O |  |  |  |  |  |  |  | Active | Active | Active | Active | Active
11 | O=C(N/N=C\c1ccccc1Cl)c1cn(C2CC2)c2cc(Cl)c(F)cc2c1=O | 1000 (≈ 2390 µM) | 50 (≈ 120 µM) | 500 (≈ 1200 µM) | 200 (≈ 478 µM) | 500 (≈ 1200 µM) | 100 (≈ 239 µM) | 100 (≈ 239 µM) |  |  |  |  | 
12 | O=C(O)c1cn(C2CC2)c2cc(Cl)c(F)cc2c1=O | 500 (≈ 1780 µM) | 100 (≈ 355 µM) | 1000 (≈ 3550 µM) | 100 (≈ 355 µM) | 1000 (≈ 3550 µM) | 100 (≈ 355 µM) | 100 (≈ 355 µM) |  |  |  |  | 
13 | COc1ccc(N2CCN(c3cc4c(cc3F)c(=O)c(C(=O)NN3C(=O)CSC3c3ccc(O)c(OC)c3)cn4C3CC3)CC2)cc1 (stereo not drawn) | 500 (≈ 758 µM) | 1000 (≈ 1520 µM) | 1000 (≈ 1520 µM) | 1000 (≈ 1520 µM) | > 1000 | 1000 (≈ 1520 µM) | 1000 (≈ 1520 µM) |  |  |  |  | 
14 | COc1ccc(N2CCN(c3cc4c(cc3F)c(=O)c(C(=O)N/N=C\c3ccc(Cl)cc3)cn4C3CC3)CC2)cc1 | 1000 (≈ 1740 µM) | 1000 (≈ 1740 µM) | 1000 (≈ 1740 µM) | 1000 (≈ 1740 µM) | 1000 (≈ 1740 µM) | 1000 (≈ 1740 µM) | 500 (≈ 871 µM) |  |  |  |  | 
15 | COc1ccc(N2CCN(c3cc4c(cc3F)c(=O)c(C(=O)NN3C(=O)CSC3c3ccccc3)cn4C3CC3)CC2)cc1 (stereo not drawn) | 1000 (≈ 1630 µM) | 1000 (≈ 1630 µM) | 500 (≈ 815 µM) | 500 (≈ 815 µM) | 500 (≈ 815 µM) | 200 (≈ 326 µM) | 1000 (≈ 1630 µM) |  |  |  |  | 
16 | COc1ccc(N2CCN(c3cc4c(cc3F)c(=O)c(C(=O)N/N=C\c3ccc(F)cc3)cn4C3CC3)CC2)cc1 | 500 (≈ 897 µM) | 250 (≈ 448 µM) | 500 (≈ 897 µM) | 500 (≈ 897 µM) | 500 (≈ 897 µM) | 500 (≈ 897 µM) | 500 (≈ 897 µM) |  |  |  |  | 
17 | O=C(N[C@H](CO)[C@H](O)c1ccc([N+](=O)[O-])cc1)C(Cl)Cl [CHLORAMPHENICOL] |  | 50 (≈ 155 µM) |  | 50 (≈ 155 µM) |  | 50 (≈ 155 µM) | 50 (≈ 155 µM) |  |  |  |  | 
18 | COc1ccc(N2CCN(c3cc4c(cc3F)c(=O)c(C(=O)NN3C(=O)CSC3c3ccc(O)cc3)cn4C3CC3)CC2)cc1 (stereo not drawn) | 1000 (≈ 1590 µM) | 500 (≈ 794 µM) | > 1000 | 500 (≈ 794 µM) | 1000 (≈ 1590 µM) | 500 (≈ 794 µM) | 500 (≈ 794 µM) |  |  |  |  | 
19 | COc1ccc(/C=N\NC(=O)c2cn(C3CC3)c3cc(Cl)c(F)cc3c2=O)cc1 | 500 (≈ 1210 µM) | 200 (≈ 483 µM) | > 1000 | 500 (≈ 1210 µM) | > 1000 | 500 (≈ 1210 µM) | 1000 (≈ 2420 µM) |  |  |  |  | 
20 | O=C(N/N=C\c1ccccc1)c1cn(C2CC2)c2cc(Cl)c(F)cc2c1=O | 500 (≈ 1300 µM) | 500 (≈ 1300 µM) | 1000 (≈ 2610 µM) | 500 (≈ 1300 µM) | 1000 (≈ 2610 µM) | 1000 (≈ 2610 µM) | 1000 (≈ 2610 µM) |  |  |  |  | 
